Assay [1] addresses T1, PBP4^TO (Candidatus Thiosymbion oneisti, UniProt Z9LUN3GEC2).
T1 sequence (Z9LUN3GEC2 31-414 limits assumed): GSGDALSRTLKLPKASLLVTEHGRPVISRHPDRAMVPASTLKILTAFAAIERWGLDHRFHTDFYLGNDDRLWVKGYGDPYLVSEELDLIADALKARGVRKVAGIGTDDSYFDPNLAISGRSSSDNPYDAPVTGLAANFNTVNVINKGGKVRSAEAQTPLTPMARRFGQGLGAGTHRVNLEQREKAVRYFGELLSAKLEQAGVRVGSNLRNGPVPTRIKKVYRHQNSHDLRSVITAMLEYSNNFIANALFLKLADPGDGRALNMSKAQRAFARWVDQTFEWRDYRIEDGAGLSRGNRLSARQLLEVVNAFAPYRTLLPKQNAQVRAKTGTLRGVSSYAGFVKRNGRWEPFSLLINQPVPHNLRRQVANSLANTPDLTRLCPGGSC
Nature of the assay: Bocillin-FL labelling, SDS-PAGE fluorescence. The settings on record: pH 7.5, 50 mM NaCl, 10 mM MgCl2, 28 °C, 30 min; covalent. Details: His-tagged, expressed in cytoplasm of E. coli SF100 (plasmid pJW06, pET302 vector named); gene 1245 nt, 414 aa; dimers and higher oligomers on native PAGE. The assay is classed as binding.

Assay [2] concerns the target T1, PBP4^TO. As to the kind of experiment: Bocillin-FL competition, SDS-PAGE fluorescence. The settings on record: pH 7.5, 50 mM NaCl, 10 mM MgCl2, 28 °C, 20 min before 15 μg/mL Bocillin-FL (30 min).

Molecules are shown by their SMILES.

We go through five compounds from publication PMC7999549, “PBP4 Is Likely Involved in Cell Division of the Longitudinally Dividing Bacterium Candidatus Thiosymbion Oneisti” (Antibiotics, 2021).

For the compound `CC1=CC(C)=[N+]2C1=Cc1ccc(CCC(=O)Nc3ccc(OCC(=O)N[C@@H]4C(=O)N5[C@@H]4SC(C)(C)[C@@H]5C(=O)O)cc3)n1[B-]2(F)F` [Bocillin-FL], the “Bocillin-FL labelling, SDS-PAGE fluorescence” value at PBP4^TO [1] is given as “Purified PBP4^TO protein was detectable after Bocillin-FL labeling”.
With `NC(=O)c1cc[n+](CC2=C(C(=O)[O-])N3C(=O)[C@@H](NC(=O)[C@@H](c4ccccc4)S(=O)(=O)O)[C@H]3SC2)cc1` [cefsulodin], at PBP4^TO [2] (weak binder), the “Bocillin-FL competition, SDS-PAGE fluorescence” value (from here on “Bocillin-FL competition”) was “cefsulodin, PBP2 inhibitor mecillinam, PBP4 inhibitor cephalexin”.
On to `CC1(C)S[C@@H]2[C@H](N=CN3CCCCCC3)C(=O)N2[C@H]1C(=O)O` [mecillinam], for which the “Bocillin-FL competition” value at PBP4^TO [2] (weak binder) was “PBP2 inhibitor mecillinam, PBP4 inhibitor cephalexin”.
For the compound `C[C@@H](O)[C@H]1C(=O)N2C(C(=O)O)=C(S[C@@H]3CN[C@H](C(=O)N(C)C)C3)[C@H](C)[C@H]12` [meropenem], on PBP4^TO [2] (possible allosteric second site at high concentration), the “Bocillin-FL competition” value is listed as “does present some affinity for PBP4^TO, whereas Bocillin-FL intensity is enhanced with high-concentration treatment”.
On to `CC1(C)S[C@@H]2[C@H](NC(=O)Cc3ccccc3)C(=O)N2[C@H]1C(=O)O` [penicillin G], for which the “Bocillin-FL competition” value on PBP4^TO [2] is “penicillin G had a similar affinity for PBP4^TO as for PBP4^EC”.
